Data taken from the Biogen ADME set (Fang et al. 2023).
Values after ≈ are worked out from the molar mass of the structure shown.

Details: for aqueous solubility: pH 6.8

Row | Structure (SMILES) | MDR1-MDCK efflux ratio | aqueous solubility [µg/mL] | intrinsic clearance, human liver microsomes [mL/min/kg] | intrinsic clearance, rat liver microsomes [mL/min/kg] | fraction unbound, human plasma | fraction unbound, rat plasma
1 | COc1cccc(N2CCN(c3nc(C)cc(C)c3C#N)CC2)c1 | 0.519 | 0.9 (≈ 2.79 µM) |  |  |  | 
2 | O=c1c2cccn2c2ccccc2n1CCCN1CCC(c2ccc(Cl)cc2)CC1 | 5.19 | 19.8 (≈ 47 µM) | 183 | 1330 |  | 
3 | C[C@@H]1NC(=O)N(CCC2Cc3ccccc3C2)C1=O | 0.771 |  | ≤ 4.74 | 193 |  | 
4 | Clc1ccc2[nH]c(COc3ccccc3)nc2c1 |  | 29.5 (≈ 114 µM) | 27.9 | 338 |  | 
5 | CCC(CC)NC(=O)c1ccc(C#N)c(C)n1 |  | 52.9 (≈ 229 µM) | 6.17 | 50 |  | 
6 | Cc1nnsc1CN(C)c1ccc2cc[nH]c2n1 | 0.593 | 24.5 (≈ 94.5 µM) | 39.3 | 342 |  | 
7 | CN(C)C(=O)c1ccnc(NCc2cccc(C#N)c2)c1 | 5.72 |  | ≤ 4.74 | 69 |  | 
8 | C[C@@H](/C=C\C(F)(F)F)Oc1cc(-c2cc(-c3cc(CN(C)C)cs3)cnc2N)ccc1C(N)=O | 32.7 | 21.2 (≈ 43.2 µM) | 20.5 | 157 |  | 
9 | CC1(C)CC[C@]2(C(=O)O)CC[C@]3(C)C(C(=O)C=C4[C@@]5(C)C=C(C#N)C(=O)C(C)(C)[C@@H]5CC[C@]43C)C2C1 (stereo partly specified) |  | 63.5 (≈ 129 µM) |  |  |  | 
10 | CCOC(=O)c1ccc(N2CCSCC2)nc1 | 0.309 |  | 411 | 2980 |  | 
11 | Cc1ccccc1-c1cc(N)n(Cc2ccccc2)n1 |  |  | 33.2 | 302 |  | 
12 | O=C(Nc1cccc(N2CCNC2=O)c1)C1NCC12CCCC2 (stereo unspecified) | 22 |  | ≤ 4.74 |  | 0.523 | 
13 | Cc1cc(C)nc(Nc2ccc(C3CCCN(CC(=O)N4CCCC4)C3)nc2)n1 (stereo unspecified) | 41.3 | 66.6 (≈ 169 µM) | 8.28 | 118 |  | 
14 | Cc1ccc(C(=O)Nc2nc3ccccc3[nH]2)cc1 |  | 0.85 (≈ 3.38 µM) |  |  |  | 
15 | CC(C)n1cnnc1SCOCc1ccccc1 | 0.711 |  | ≤ 4.74 | 219 |  | 
16 | CC(=O)Nc1ccnn1C1CCN(Cc2ccccc2C#Cc2ccccc2)CC1 | 26.5 | 25.8 (≈ 64.8 µM) | 82.5 | 507 |  | 
17 | CCCc1noc(CN2CCN(c3ccccc3OC)CC2)n1 | 0.743 |  | 27 | 351 |  | 
18 | OC1(Cc2nc(-c3ccsc3)no2)CCCCC1 | 0.564 |  | 20.5 | 1040 |  | 
19 | O=C(CN1CCCN(c2ccc(C(F)(F)F)cn2)CC1)Nc1ccccc1Cl | 1.03 | 11 (≈ 26.6 µM) | 229 | 1650 |  | 
20 | COc1cc(-c2ccc(C)s2)cc2c1OCCN(c1noc(C)n1)C2 |  | 3.01 (≈ 8.42 µM) | 57.4 | 940 |  | 
21 | O=C(NCc1ccc(O)cc1)Nc1ccncc1F |  | 37.8 (≈ 145 µM) | ≤ 4.74 | ≤ 10.7 |  | 

Row | Structure (SMILES) | MDR1-MDCK efflux ratio | aqueous solubility [µg/mL] | intrinsic clearance, human liver microsomes [mL/min/kg] | intrinsic clearance, rat liver microsomes [mL/min/kg] | fraction unbound, human plasma | fraction unbound, rat plasma
22 | Cc1n[nH]c(-c2c(C)c3cc(F)ccc3n2C)n1 | 0.509 | 23.5 (≈ 96.2 µM) | 88.2 | 316 |  | 
23 | OCCN1CCN(c2ccnc3ccc(Br)cc23)CC1 | 1.74 |  | 12.5 | 114 |  | 
24 | COCC(=O)Nc1ccc(C)c(NC(=O)[C@H](OC)c2ccccc2)c1 | 2.8 |  | 85.2 | 44.9 |  | 
25 | CCc1nc2ccccc2n1CC(=O)Nc1ncc(C)s1 | 29.4 | 49.2 (≈ 164 µM) | 8.53 | 348 |  | 
26 | Cc1nccc(C2CCN(Cc3ncc[nH]3)CC2)n1 | 25.7 | 80.4 (≈ 313 µM) | ≤ 4.74 | 28.9 |  | 
27 | COC(=O)c1c(C)[nH]c(C(=O)N(C)Cc2ccc(OC)c(F)c2)c1C | 1.5 | 47.3 (≈ 136 µM) | 55 | 591 |  | 
28 | O=C(CSCCc1ccncc1)Nc1ccccc1 | 0.805 |  | 19.6 | 429 |  | 
29 | O=C(c1ccc(NS(=O)(=O)c2cccc3cccnc23)cc1)N1CCN(CC2CC2)CC1 |  |  | 75.9 | 604 |  | 
30 | CC(=O)N[C@H]1/C(=N\OC(=O)Nc2ccccc2)O[C@H](CO)[C@H](O)[C@@H]1O |  | 66.4 (≈ 188 µM) |  |  |  | 
31 | Cc1ccc(C(=O)C(=O)Nc2c(C)nn(C)c2C)cc1 | 0.615 | 32.6 (≈ 120 µM) | 20 | 115 |  | 
32 | Cc1cccc(C)c1OCC(=O)N(C)[C@@H]1CCC[C@@H](O)[C@@H]1O | 11.2 |  | 9.69 | 155 |  | 
33 | O=C(NCc1cccnc1)c1cnn(-c2ccccc2)c1 | 2.46 | 38.3 (≈ 138 µM) | ≤ 4.74 | 26.3 |  | 
34 | O=C(NCCc1c[nH]c2cccc(C3(O)CCOCC3)c12)c1cccs1 |  | 65.5 (≈ 177 µM) |  |  |  | 
35 | Brc1cnc2ccccc2c1 |  | 0.925 (≈ 4.45 µM) |  |  |  | 
36 | Cc1csc(NC(=O)c2ccc(-c3ccncc3)cc2)n1 | 0.179 | 2.34 (≈ 7.92 µM) | 35.7 | 305 |  | 
37 | Cn1ccnc1CN1CCN(Cc2ccc(F)cc2C#N)CC1 | 6.3 | 43.9 (≈ 140 µM) | ≤ 4.74 | 446 |  | 
38 | Cc1ccccc1OCCCNc1cc(Cn2c(C)nc3ccccc32)nc(N)n1 | 21.4 | 14.4 (≈ 35.9 µM) | 717 | 2130 |  | 
39 | CSC1(CNC(=O)N2CCC=C(c3ccccc3)C2)CCOCC1 | 1.61 |  | 120 | 2750 |  | 
40 | COc1cc2c(cc1OC)-c1[nH]nc(NCc3c(Cl)cccc3Cl)c1C2=O | 3.05 | 0.29 (≈ 0.717 µM) |  |  |  | 
41 | CCc1ccccc1NC(=O)Cn1nc(C)cc1C | 0.716 | 44.2 (≈ 172 µM) | 25.2 | 94.9 |  | 
42 | CN(CC(=O)NC1CC1)C(=O)C1C2CC3CC(C2)CC1C3 (stereo unspecified) | 1.58 | 50.8 (≈ 175 µM) | 21.7 | 463 |  | 

Row | Structure (SMILES) | MDR1-MDCK efflux ratio | aqueous solubility [µg/mL] | intrinsic clearance, human liver microsomes [mL/min/kg] | intrinsic clearance, rat liver microsomes [mL/min/kg] | fraction unbound, human plasma | fraction unbound, rat plasma
43 | CCCn1ncnc1-c1ccccc1SC | 0.798 | 19.9 (≈ 85.2 µM) | 82.5 | 765 |  | 
44 | O=C(C1CCCN(c2ccccn2)C1)N1CCc2ccccc2C1 (stereo unspecified) |  | 49.2 (≈ 153 µM) | 172 | 1520 |  | 
45 | O=c1sn(-c2cccc3ccccc23)c(=O)n1Cc1ccccc1 |  | 0.4 (≈ 1.2 µM) |  |  |  | 
46 | Clc1ccc(CSc2nc(-c3ccccc3)cs2)cn1 |  |  | 221 | 2260 |  | 
47 | Cc1cccc2ncn(CCc3ncc[nH]3)c(=O)c12 | 6.44 |  | ≤ 4.74 | 2240 |  | 
48 | O[C@@H]1C[C@@H](c2nc(-c3ccccc3)no2)N(Cc2ccccc2)C1 | 0.539 | 41.6 (≈ 129 µM) | 54.2 | 908 |  | 
49 | Cc1ccc(F)c(N(C#N)Cc2nnc(C)o2)c1 |  | 44.6 (≈ 181 µM) |  |  |  | 
50 | Cc1cc(F)ccc1S(=O)(=O)N1CCCc2cnc(N3CCOCC3)nc21 | 0.723 | 0.31 (≈ 0.79 µM) |  |  |  | 
51 | Cc1cnn(CCNC(=O)C2(Cn3cccn3)CC2)c1 | 6.11 |  | 10.2 | 108 |  | 
52 | CC(C)[C@H](NC(=O)c1c(F)cccc1F)C(=O)N1CCOCC1 | 8.08 | 50.7 (≈ 155 µM) | ≤ 4.74 | ≤ 10.7 |  | 
53 | CN(NC(=O)c1ccn(-c2ccccc2)n1)c1ccccc1 |  | 58.1 (≈ 199 µM) | 82.3 | 1900 |  | 
54 | NCCc1cnn(Cc2ccccc2)c1 |  |  | ≤ 4.74 | ≤ 10.7 |  | 
55 | Cc1cc(N2CCCC2c2cc(CCC(=O)O)cc(C)n2)ncn1 (stereo unspecified) |  |  | ≤ 4.74 | ≤ 10.7 | 1 | 1
56 | O=C1CN(C(=O)c2cccc(Oc3cccc(C(F)(F)F)c3)c2)CCN1 | 8.39 | 39 (≈ 107 µM) | 5.25 | 66.1 |  | 
57 | COc1ncccc1CNc1c(C#N)cnc2c(C)cc(F)cc12 |  |  | 156 | 1250 |  | 
58 | CC(=O)N1CCN(C(=O)CS(=O)(=O)C23CC4CC(CC(C4)C2)C3)CC1 | 10.3 |  | ≤ 4.74 | 298 |  | 
59 | CSCC[C@@H](CO)n1ccnc1-c1oc2ccccc2c1C | 3.51 | 73.2 (≈ 231 µM) | 167 | 2000 |  | 
60 | Cn1c(=O)n(Cc2cccc(OC(F)F)c2)c2cnccc21 | 1.34 | 49.1 (≈ 161 µM) | 10.4 | 209 |  | 
61 | CCOc1ccc(C(=O)Nc2cnn(C3CCOCC3)c2)cn1 | 1.41 | 39.9 (≈ 126 µM) | ≤ 4.74 | 106 |  | 
